Structure (SMILES) | logP
Cc1ccccc1C(=O)c1ccccc1C | 3.87
CCCCCCCc1ccc(C(=O)O)cc1 | 5.56
CCCc1ncc[nH]1 | 1.3
Cc1ccc(C(=O)O)cc1C | 2.95
CCc1cccc(CC)c1C(=O)c1c(CC)cccc1CC | 6.54
Nc1ccc2ccc3cccc4ccc1c2c34 | 4.01
Cc1cccc(C)c1C(=O)c1ccccc1 | 3.65
CCc1ncc[nH]1 | 0.77
CCc1c2ccccc2cc2ccccc12 | 5.52
Clc1ccc2cc3ccccc3cc2c1 | 5.2
O=[N+]([O-])c1cccc2ccccc12 | 3.06
Nc1ccc(Br)c2ccccc12 | 3.26
CCCCCc1ccc(C(=O)O)cc1 | 4.5
Cc1cccc(C)c1C(=O)c1c(C)cccc1C | 4.69
Cc1nc2ccccc2[nH]1 | 1.84
